Measured values from US20160312284A1, “SELECT SINGLE NUCLEOTIDE POLYMORPHISMS PREDICTIVE OF RESPONSE TO GLATIRAMER ACETATE” (Teva Pharmaceutical Industries, Ltd., priority 2015, published 2016).

Legend:
[1] = test system: Subjects With Relapsing-Remitting Multiple Sclerosis (RRMS); test: GALA phase 3 trial (GA 40 mg three times a week vs placebo): response categories and ARR by predictive model; type: in vivo, human
Description: As used herein, “GALA” is a phase 3 clinical trial entitled “A Study in Subjects With Relapsing-Remitting Multiple Sclerosis (RRMS) to Assess the Efficacy, Safety and Tolerability of Glatiramer Acetate (GA) Injection 40 mg Administered Three Times a Week Compared to Placebo (GALA).” The GALA trial has the ClinicalTrials.gov Identifier NCT01067521, and additional information about the trial can be found at clinicaltrials.gov/ct2/show/NCT01067521.
(§1) Response definitions were received from patients from two large glatiramer acetate clinical trial cohorts (GALA, FORTE) and patients were categorized as responder, non-responder, extreme-responder, or extreme non-responder according to the criteria set forth in Table 1.
(§2) To identify genetic markers associated with high response to Copaxone® comprising the following characteristics: (1) high response as measured by ARR reductions, (2) predictive, not prognostic, markers: associated with response only in Copaxone®-treated patients, and not in the placebo group, (3) markers that are confirmed in an independent cohort, and (4) a subset of GALA and FORTE studies' patients with clarly defined response phenotypes (high responders versus low responders) (FIG. 6) Patient DNA samples were genotyped for 4.3 million genetic variants (Illumina HumanOmni5 array).
(§3) Regression analysis was applied, with the threshold for distinguishing responders from non-responders was selected by analysis of receiver-operator curves. Intermediate responders were genotyped by either Illumina 5M array or focused taqman-based SNP genotyping and Sanger sequencing.

[2] = test system: Relapsing-Remitting Multiple Sclerosis (RR-MS) patients; test: FORTE phase 3 trial (two doses of GA): response categories and ARR by predictive model; type: in vivo, human
Description: As used herein, “FORTE” is a phase 3 clinical trial entitled “Clinical Trial Comparing Treatment of Relapsing-Remitting Multiple Sclerosis (RR-MS) With Two Doses of Glatiramer Acetate (GA).” The FORTE trial has the ClinicalTrials.gov Identifier NCT00337779 and additional information, including study results can be found at clinicaltrials.gov/ct2/show/NCT00337779.
as §1, §2, §3

[3] = test system: genotyped patients of the GALA and FORTE cohorts; test: Combined GALA and FORTE cohorts: patient responses predicted by preliminary predictive model (model 3, threshold 0.71); type: in vivo, human
Description: A predictive model was generated based on the 11 SNPs shown in tables 32 and 33 and the two Clinical co-variants shown in table 23.
Receiver Operating Characteristic (ROC) analysis was performed using the actual value (case or control) and predicted value for each sample from the multi-marker regression model (FIG. 1). For these preliminary analyses, two risk groups were defined using the predicted values from the multi-marker regression model. The predictive threshold value was set at 0.71 (termed “model 3”) based on a variety of factors after consultation with the Teva team and Teva MS clinical experts.
Ultimately, a threshold that best differentiated between responders and non-responders (minimum positive predictive value of 90% or higher) (FIG. 2), while maximizing the number of predicted responders (predicted responders >60%) (FIG. 3) was selected. This threshold also coincided with the lowest p-value of all the thresholds examined (Chi square p-value 6.1×10^−46, odds ratio 19.9) (FIG. 4). The positive predictive value (% of all predicted responders to be true responders) was 91.1%, sensitivity (% of all true responders detected) was 80.2%; specificity (% of all true non-responders classified as non-responders) was 83.1%; and the negative predictive value ([…]) was 65.9%.
While 40% of patients were classified as “predicted non-responders” with an overall response rate of 34% (FIG. 5).

RRMS subjects = settings: largest controlled study, GA 20 mg; cited from earlier work
[4] = change in ARR < -1 and new T2 lesions = 0 and relapse free
[5] = change in ARR >= 0 and new T2 lesions >= 1
[6] = change in ARR from previous 2 years < -1
[7] = change in ARR from previous 2 years >= 0

Substance: Glatiramer acetate
- Extreme Responders (% of cohort) [1, 4]: (8.5%)
- Extreme Non-Responders (% of cohort) [1, 5]: (10%)
- Responders (% of cohort) [1, 6]: (26%)
- Non-Responders (% of cohort) [1, 7]: (16%)
- Extreme Responders (% of cohort) [2, 4]: (16%)
- Extreme Non-Responders (% of cohort) [2, 5]: (6%)
- Responders (% of cohort) [2, 6]: (36%)
- Non-Responders (% of cohort) [2, 7]: (11%)
- improvement in response rate, predicted responders vs overall cohort ([3]; 68% vs. 91%): 34%
- improved response rate, predicted responders vs predicted non-responders ([3]; P<10^-40): 2.7 fold
- ARR reduced (improved), predicted responders vs overall patient cohort ([3]; human, in vivo): 60%
- nrelapse reduced (improved), predicted responders vs overall patient cohort ([3]; human, in vivo): 58%
- EDSS progression delayed (improved), predicted responders vs predicted non-responders ([3]; p-value 0.00095): 72%
- T1 enhancing lesions at month 12 reduced (improved), predicted responders vs predicted non-responders ([3]; p-value 0.043): 47%
- reduced EDSS progression, predicted responders vs overall cohort ([3]; p-value 0.08): 49%
- ARR reduced (improved), predicted responders vs predicted non-responders ([3]; p-value 2.2×10^-25): 80%
- nrelapse reduced (improved), predicted responders vs predicted non-responders ([3]; p-value 7.70×10^-32): 78%
- overall response rate ([3]; predicted non-responders (40% of patients)): 34%
- relapse rate reduced vs placebo (RRMS subjects): 32%
